Tests used:
[1] = system: S. pneumoniae D39V; assay: Bliss interaction score (quartile over a dose matrix) (fitness difference); higher = more antagonism (negative = synergy)
How it was run: (§1)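 The Bliss score takes observed fitness and subtracts the expected fitness, calculated as a product of single-drug fitness values. Those single-drug values were inferred from the combination data. Fitness is OD595 at entry into stationary phase divided by the plate's robust no-drug mean, capped at 1, and the score is summarised by quartiles across technical, biological and donor/recipient replicates.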

[2] = system: S. aureus DSM 20231; assay: as above
How it was run: as §1

[3] = system: S. aureus Newman; assay: as above
How it was run: as §1

[4] = system: B. subtilis 168; assay: as above
How it was run: as §1

[5] = system: S. pneumoniae D39V; assay: fitness (endpoint OD595 vs no drug) (fraction); higher = more growth
How it was run: (§2)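 Fitness expresses the optical density reached at the stationary-phase transition as a fraction of the robust mean of no-drug control wells. It is capped at 1. Measurements were OD595 every 30 min for 14 h at 37 °C after inoculation of 384-well plates at OD595 0.01 (30 µl, or 55 µl for S. pneumoniae), minus the first reading.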

[6] = system: S. aureus DSM 20231; assay: as above
How it was run: as §2

[7] = system: S. aureus Newman; assay: as above
How it was run: as §2

[8] = system: B. subtilis 168; assay: as above
How it was run: as §2
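Wherever Bliss interaction score (quartile over a dose matrix) is given: first quartile when negative (synergy) and third quartile when positive (antagonism).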
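Wherever fitness (endpoint OD595 vs no drug) is given: OD595 on entry to stationary phase over no-drug wells; at most 1.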

Cc1ncc([N+](=O)[O-])n1CCO [Metronidazole] + CN[C@@H]1[C@H](O)[C@H](NC)[C@H]2O[C@@]3(O)C(=O)C[C@@H](C)O[C@H]3O[C@@H]2[C@H]1O [Spectinomycin]
Details	Bliss interaction score
[1]	0.044
[2]	0.0691
[3]	0.0758
[4]	-0.0603

fitness
Details	partner 2 µg/mL	partner 4 µg/mL	partner 8 µg/mL	partner 16 µg/mL
[5], first compound 1.073 µg/mL	–	0.94	0.976	0.909
[5], first compound 2.145 µg/mL	–	0.946	0.944	0.881
[5], first compound 4.29 µg/mL	–	0.901	0.9	0.878
[6], first compound 0.625 µg/mL	–	0.973	0.944	0.887
[6], first compound 1.25 µg/mL	–	0.946	0.958	0.852
[6], first compound 2.5 µg/mL	–	0.976	≥ 1	0.924
[7], first compound 0.625 µg/mL	–	0.94	0.909	0.929
[7], first compound 0.781 µg/mL	–	0.893	0.974	0.91
[7], first compound 1.25 µg/mL	–	0.98	0.98	0.932
[7], first compound 1.562 µg/mL	–	0.93	0.998	0.928
[7], first compound 2.5 µg/mL	–	0.951	0.926	0.926
[7], first compound 3.124 µg/mL	–	0.895	0.98	0.935
[8], first compound 0.625 µg/mL	0.947	0.963	0.949	–
[8], first compound 1.25 µg/mL	0.973	0.953	0.889	–
[8], first compound 2.5 µg/mL	0.976	0.95	0.91	–

fitness, one replicate
Details	first compound 0.625 µg/mL	first compound 1.25 µg/mL	first compound 2.5 µg/mL	first compound 5 µg/mL
[5], partner 4 µg/mL	–	≥ 1	≥ 1	≥ 1
[5], partner 8 µg/mL	–	0.964	0.99	0.986
[6], partner 32 µg/mL	0.703	0.684	0.689	–
[6], partner 64 µg/mL	0.0868	0.121	0.103	–
[7], partner 32 µg/mL	0.685	0.656	0.596	–
[7], partner 64 µg/mL	0.101	0.147	0.134	–

Cc1ncc([N+](=O)[O-])n1CCO [Metronidazole] + CCN(CC)CCOC(=O)c1ccc(N)cc1 [Procaine]
Details	Bliss interaction score
[1]	-0.0526
[2]	0.0477
[3]	0.0807
[4]	-0.0393

fitness
Details	partner 85.5 µg/mL	partner 171 µg/mL	partner 342 µg/mL
[5], first compound 1.073 µg/mL	0.979	0.969	0.939
[5], first compound 2.145 µg/mL	0.911	0.948	0.89
[5], first compound 4.29 µg/mL	0.914	0.894	0.927
[6], first compound 0.625 µg/mL	0.996	≥ 1	≥ 1
[6], first compound 1.25 µg/mL	0.977	≥ 1	≥ 1
[6], first compound 2.5 µg/mL	0.938	≥ 1	≥ 1
[7], first compound 0.625 µg/mL	0.934	0.934	0.686
[7], first compound 1.25 µg/mL	0.858	0.988	–
[7], first compound 2.5 µg/mL	0.814	0.876	–
[8], first compound 0.625 µg/mL	0.94	0.944	0.876
[8], first compound 1.25 µg/mL	0.935	0.956	0.937
[8], first compound 2.5 µg/mL	0.896	0.868	0.958

fitness, one replicate
Details	first compound 0.781 µg/mL	first compound 1.25 µg/mL	first compound 1.562 µg/mL	first compound 2.5 µg/mL	first compound 3.124 µg/mL	first compound 5 µg/mL
[5], partner 85.5 µg/mL	–	≥ 1	–	≥ 1	–	0.979
[5], partner 171 µg/mL	–	≥ 1	–	≥ 1	–	≥ 1
[5], partner 342 µg/mL	–	0.952	–	≥ 1	–	0.95
[7], partner 85.5 µg/mL	≥ 1	–	≥ 1	–	≥ 1	–
[7], partner 171 µg/mL	≥ 1	–	≥ 1	–	≥ 1	–
[7], partner 342 µg/mL	≥ 1	–	≥ 1	–	≥ 1	–

Reference: the supplement of paper PMC10627819
